From patent US7713994B2 (Wyeth LLC, priority 2005, dated 2010)
Where two headings read alike, the source gives them in different places.

What was measured:
HCT-116 = assay: Cytotoxicity assay (SRB), HCT-116; assay type: cell-based; settings: read-out: In Vitro Cellular Activity IC50 HCT116
Outline: (§1)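 Protein staining with sulforhodamine B after cold TCA fixation served as the survival endpoint (A540, relative to untreated cells). Before staining, cells were incubated with compound at 37 °C, 7% CO2 for 3 days, or 6 days for BT474.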

MCF-7 = assay: Cytotoxicity assay (SRB), MCF-7; assay type: cell-based; settings: read-out: In Vitro Cellular Activity IC50 MCF-7
Outline: as §1

cyclin D1/cdk 4 enzyme = molecular target: T1, cyclin D1/cdk 4 enzyme (Homo sapiens, UniProt P11802); assay: CDK4 ELISA kinase assay (phospho-Rb ser 795 detection); assay type: biochemical
T1 construct: made in house; host or cells: Sf9 insect cells, recombinant baculovirus
Outline: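 Sf9-derived cyclin/CDK, 200 μM ATP, immobilized GST-Rb; 30° C/1 h. Detection: phospho-Ser795 Ab, HRP, TMB, OD450.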

LoVo = assay: Cytotoxicity assay (SRB), LoVo; assay type: cell-based; settings: read-out: In Vitro Cellular Activity IC50 LOVO
Outline: as §1

cyclin B/CDK1 enzyme = molecular target: T2, cyclin B/CDK1 enzyme (Homo sapiens, UniProt P06493); assay: CDK1 ELISA kinase assay (phospho-Rb ser 795 detection); assay type: biochemical
T2 construct: purchased New England BioLabs; host or cells: Sf9 insect cells, recombinant baculovirus
Description: • 1. High-binding ELISA microtiter plates (Costar) were coated with 40 μl of the kinase substrate (GST fusion of C-terminal fragment of the retinoblastoma susceptibility gene product) diluted to 10 μg/ml in tris-buffered saline (TBS), overnight at 4° C. • 2. Non-specific binding sites were blocked for 1 hour at 4° C. with Superblock in TBS (Pierce), and the plates rinsed with water. • 3. For the screen, 1.5 μl of test compound (200 μg/ml stock in 20% DMSO/20 mM HEPES, pH 7.5) was added to each well. Final dose of the test compound in the assay was 10 ug/ml. […] The kinase reaction (30 μl) was dispensed into each well. Reactions contained 200 μM ATP, 0.5 mg/ml bovine serum albumin (BSA; Sigma), and 0.5 μl partially purified cyclin D1/cdk 4 enzyme*. The enzyme complex is expressed in insect cells (Sf9) infected with recombinant baculovirus and partially purified using ammonium sulfate fractionation. Reaction volumes were adjusted to 30 μl with kinase assay buffer (50 mM HEPES, pH 7.5, 10 mM MgCl2, 5% glycerol, 10 mM 2-mercaptoethanol). • *: For CDK2 assay, 1.0 μl cyclin E/CDK2 enzyme (diluted 1:1000 in kinase assay buffer) was used. The enzyme is isolated from insect cells (Sf9) infected with recombinant baculovirus and partially purified using ammonium sulfate fractionation. For CDK1 assay, 0.08 μl cyclin B/CDK1 enzyme [New England BioLabs; the enzyme is isolated from insect cells (Sf9) infected with recombinant baculovirus carrying human cdc 2 and human cyclin B] was used.
[…] • 5. Plates were incubated at 30° C. for 1 hour. • 6. The reaction mixture was removed by aspiration and replaced with 250 μl TBS containing 0.1% Tween-20 and 5% nonfat dry milk (blocking buffer). The plates were incubated at 4° C. for 1 hour. • 7. The blocking buffer was removed and replaced with 50 μl of the primary antibody [anti-phospho-Rb ser 795 (New England BioLabs) diluted 1:1000 in blocking buffer]. Incubation was at 4° C. for 16-20 hours. • 8. The wells were rinsed 3 times with 250 μl of TBS containing 0.1% Tween-20 followed by the addition of 50 μl of secondary antibody [anti-rabbit IgG conjugated to horseradish peroxidase (Amersham Life Science) diluted 1:1000 in blocking buffer]. • 9. After a 1 hour incubation at room temperature, the wells were rinsed 3 times with 250 μl of TBS/0.1% Tween 20. • 10. TMB (3,3′,5,5′-tetramethylbenzidine dihydrochloride) substrate solution (100 μl; Pierce) was added to each well and the color development reaction allowed to proceed 5-10 minutes at room temperature with shaking. The reaction was stopped by the addition of 2N sulfuric acid (100 μl) and the absorbance values read at 450 nm in a microplate reader (Molecular Devices). Analysis of Results: • 1. The percentage of the absorbance value in wells containing the test compound relative to control wells (no test agent) was determined. • 2. IC50 values of selected compounds were determined from inhibition curves, after subtracting background values (no substrate).

BT474 = assay: Cytotoxicity assay (SRB), BT474; assay type: cell-based; settings: read-out: In Vitro Cellular Activity IC50 BT474
Outline: as §1

[1] = Homo sapiens, HCT-116, 72 h, HCT116 cells, SRB, three days
[2] = Homo sapiens, MCF7, 72 h, MCF-7 cells, SRB, three days
[3] = In Vitro Enzyme Assays, 200 μM ATP, read-out: CDK4 IC50
[4] = Homo sapiens, LoVo, 72 h, LoVo cells, SRB, three days
[5] = In Vitro Enzyme Assays, read-out: CDK1 IC50
[6] = Homo sapiens, BT-474, 144 h, BT474 cells, SRB, 6 days
[7] = In Vitro Enzyme Assay, cyclin D1/cdk 4, read-out: CDK4 IC50
[8] = In Vitro Enzyme Assay, cyclin B/CDK1, read-out: CDK1 IC50
[9] = Homo sapiens, HCT-116, 72 h, HCT116 cells, 3 days, SRB
[10] = Homo sapiens, MCF7, 72 h, MCF-7 cells, 3 days, SRB
[11] = Homo sapiens, LoVo, 72 h, LoVo cells, 3 days, SRB
[12] = Homo sapiens, BT-474, 144 h, BT474 cells, 6 days, SRB

T1 sequence (P11802 whole entry, species assumed): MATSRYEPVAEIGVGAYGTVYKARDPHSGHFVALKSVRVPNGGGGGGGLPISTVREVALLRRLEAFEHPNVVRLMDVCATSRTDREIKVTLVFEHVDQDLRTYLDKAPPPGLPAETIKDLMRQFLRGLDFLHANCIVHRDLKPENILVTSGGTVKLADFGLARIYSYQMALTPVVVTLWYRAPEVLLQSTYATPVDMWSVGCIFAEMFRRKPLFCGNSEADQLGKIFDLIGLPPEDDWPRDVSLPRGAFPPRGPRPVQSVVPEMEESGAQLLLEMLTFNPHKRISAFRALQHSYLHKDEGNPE
T1 sequence (P24385 whole entry partner, species assumed): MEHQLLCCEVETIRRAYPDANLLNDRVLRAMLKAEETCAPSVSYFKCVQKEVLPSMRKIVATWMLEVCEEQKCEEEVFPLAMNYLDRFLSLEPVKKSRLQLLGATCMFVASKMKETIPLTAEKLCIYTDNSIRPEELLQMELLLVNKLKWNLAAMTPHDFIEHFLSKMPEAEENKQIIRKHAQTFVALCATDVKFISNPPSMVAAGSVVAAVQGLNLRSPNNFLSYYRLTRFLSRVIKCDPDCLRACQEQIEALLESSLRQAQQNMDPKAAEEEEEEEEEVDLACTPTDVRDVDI
T2 sequence (P06493 whole entry): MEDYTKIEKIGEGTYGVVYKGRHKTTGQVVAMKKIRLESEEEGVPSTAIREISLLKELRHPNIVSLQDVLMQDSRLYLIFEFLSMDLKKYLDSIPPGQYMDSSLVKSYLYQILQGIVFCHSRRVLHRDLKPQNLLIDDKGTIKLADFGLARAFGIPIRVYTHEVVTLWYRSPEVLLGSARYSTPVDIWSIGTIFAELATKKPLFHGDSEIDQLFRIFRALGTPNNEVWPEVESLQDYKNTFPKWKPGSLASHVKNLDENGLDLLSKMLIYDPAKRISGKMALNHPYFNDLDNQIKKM
T2 sequence (P14635 whole entry partner): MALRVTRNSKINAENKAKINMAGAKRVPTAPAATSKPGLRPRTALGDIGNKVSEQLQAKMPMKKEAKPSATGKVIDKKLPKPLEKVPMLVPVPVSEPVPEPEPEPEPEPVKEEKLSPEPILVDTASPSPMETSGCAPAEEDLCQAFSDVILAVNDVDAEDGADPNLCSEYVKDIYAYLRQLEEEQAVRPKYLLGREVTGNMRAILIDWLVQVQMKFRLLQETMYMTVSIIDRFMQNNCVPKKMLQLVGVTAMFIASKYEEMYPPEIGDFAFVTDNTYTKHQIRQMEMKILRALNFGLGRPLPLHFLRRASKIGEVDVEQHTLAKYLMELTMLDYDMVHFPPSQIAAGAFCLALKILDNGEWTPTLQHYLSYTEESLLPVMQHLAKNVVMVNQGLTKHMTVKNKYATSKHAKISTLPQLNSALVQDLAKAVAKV

IC50 (cyclin D1/cdk 4 enzyme; [3]) | IC50 (cyclin B/CDK1 enzyme; [5]) | Compound | IC50 (HCT-116; [1]) | IC50 (MCF-7; [2]) | IC50 (LoVo; [4]) | IC50 (BT474; [6]) | further results
 | > 50000 nM | C[C@@H]1CN(c2ccc(N/C=C3\C(=O)NC(=O)c4ccc(I)cc43)cc2)C[C@H](C)N1 [Example 216, (4Z)-4-({[4-(3,5-Dimethylpiperazin-1-yl)phenyl]amino}methylene)-6-iodoisoquinoline-1,3(2H,4H)-dione] |  |  | 1300 nM | 1100 nM | 
320 nM | > 50000 nM | CN1CC2CC1CN2c1ccc(NC=C2C(=O)NC(=O)c3ccc(I)cc32)cc1 (stereo not shown) [Example 221, 6-Iodo-4-{[4-(5-methyl-2,5-diaza-bicyclo[2.2.1]hept-2-yl)-phenylamino]-methylene}-4H-isoquinoline-1,3-dione] | 1900 nM | 2600 nM | 3200 nM | 3200 nM | 
2700 nM | > 50000 nM | CC1CN(c2ccc(N/C=C3\C(=O)NC(=O)c4ccc(I)cc43)cc2)CCN1C (stereo not shown) [Example 248, (4Z)-4-({[4-(3,4-Dimethylpiperazin-1-yl)phenyl]amino}methylene)-6-iodoisoquinoline-1,3(2H,4H)-dione] |  |  | 2800 nM | 3000 nM | 
 | > 50000 nM | O=C1NC(=O)c2ccc([N+](=O)[O-])cc2/C1=C/Nc1ccc(CN2CCCCC2)cc1 [compound 42] | 3000 nM | 7600 nM | 5900 nM | 4000 nM | 

The remaining lines, values behind:

Compound | IC50 (cyclin D1/cdk 4 enzyme; [3]) | IC50 (cyclin B/CDK1 enzyme; [5]) | IC50 (HCT-116; [1]) | IC50 (MCF-7; [2]) | IC50 (LoVo; [4]) | IC50 (BT474; [6]) | further results
O=C1NC(=O)c2ccc(-c3ccc(Cl)cc3)cc2/C1=C/Nc1ccc(CN2CCCCC2)cc1 [Example 111, (4Z)-6-(4-Chlorophenyl)-4-({[4-(piperidin-1-ylmethyl)phenyl]amino}methylene)isoquinoline-1,3(2H,4H)-dione] | 19400 nM | > 50000 nM | 1200 nM | 2100 nM | 1200 nM | 2800 nM | 
COc1ccc(-c2ccc3c(c2)/C(=C/Nc2ccc(CN4CCCCC4)cc2)C(=O)NC3=O)cc1 [Example 116, (4Z)-6-(4-Methoxyphenyl)-4-({[4-(piperidin-1-ylmethyl)phenyl]amino}methylene)-isoquinoline-1,3(2H,4H)-dione] |  | > 50000 nM | 1300 nM | 3200 nM | 2800 nM | 2800 nM | 
O=C1NC(=O)c2ccc(N3CCCCC3)cc2/C1=C/Nc1ccc(CN2CCCCC2)cc1 [Example 118, (4Z)-6-Piperidin-1-yl-4-({[4-(piperidin-1-ylmethyl)phenyl]amino}methylene)isoquinoline-1,3(2H,4H)-dione] |  | > 50000 nM | 2700 nM | 4400 nM | 3200 nM | 4000 nM | 
O=C1NC(=O)c2ccc(Br)cc2/C1=C/NCc1ccc(OCCO)c(O)c1 [Example 139, (4Z)-6-Bromo-4-({[3-hydroxy-4-(2-hydroxyethoxy)benzyl]amino}methylene)isoquinoline-1,3(2H,4H)-dione] | 40 nM | > 50000 nM | > 50000 nM | > 50000 nM | 26000 nM | 15000 nM | 
C=CCOc1ccc(CN/C=C2\C(=O)NC(=O)c3ccc(Br)cc32)cc1O [Example 149, (4Z)-4-({[4-(Allyloxy)-3-hydroxybenzyl]amino}methylene)-6-bromoisoquinoline-1,3(2H,4H)-dione] | 330 nM | > 50000 nM | 18000 nM | > 50000 nM | 27000 nM | 12000 nM | 
O=C1NC(=O)c2ccc(-c3ccoc3)cc2/C1=C/NCc1ccc(OC(F)F)c(O)c1 [Example 199, (4Z)-4-({[4-(Difluoromethoxy)-3-hydroxybenzyl]amino}methylene)-6-(3-furyl)isoquinoline-1,3(2H,4H)-dione] | < 5 nM | > 50000 nM | 6400 nM | 1900 nM | 4100 nM | 1300 nM | 
O=C1NC(=O)c2ccc(I)cc2/C1=C/NCc1ccn(-c2ccccc2)c(=O)c1 [Example 518, (4Z)-6-Iodo-4-({[(2-oxo-1-phenyl-1,2-dihydropyridin-4-yl)methyl]amino}methylene)isoquinoline-1,3(2H,4H)-dione] |  |  |  |  |  |  | IC50 (HCT-116; HCT116 cells, 3 days, SRB): 230 nM; IC50 (MCF-7; MCF-7 cells, 3 days, SRB): 640 nM; IC50 (cyclin D1/cdk 4 enzyme; [7]): 110 nM; IC50 (LoVo; LoVo cells, 3 days, SRB): 150 nM; IC50 (cyclin B/CDK1 enzyme; [8]): > 50000 nM; IC50 (BT474; BT474 cells, 6 days, SRB): 80 nM
Cc1cccc(-c2ccc3c(c2)C(=CNCc2ccc(O)c(O)c2)C(=O)NC3=O)c1 [Example 782, 4-[(3,4-Dihydroxy-benzylamino)-methylene]-6-m-tolyl-4H-isoquinoline-1,3-dione] |  |  |  |  |  |  | IC50 (HCT-116; [9]): 15800 nM; IC50 (MCF-7; [10]): 14300 nM; IC50 (cyclin D1/cdk 4 enzyme; [7]): 2120 nM; IC50 (LoVo; [11]): 15800 nM; IC50 (cyclin B/CDK1 enzyme; [8]): > 50000 nM; IC50 (BT474; [12]): 20300 nM
CN1CCN(c2ccc(NC=C3C(=O)NC(=O)c4ccc(-c5ccco5)cc43)cc2)CC1 [Example 830, 6-Furan-2-yl-4-{[4-(4-methyl-piperazin-1-yl)-phenylamino]-methylene}-4H-isoquinoline-1,3-dione] |  |  |  |  |  |  | IC50 (HCT-116; [9]): 2700 nM; IC50 (MCF-7; [10]): 3300 nM; IC50 (cyclin D1/cdk 4 enzyme; [7]): 170 nM; IC50 (LoVo; [11]): 3600 nM; IC50 (cyclin B/CDK1 enzyme; [8]): > 50000 nM; IC50 (BT474; [12]): 1200 nM
CN1CCN(c2ccc(NC=C3C(=O)NC(=O)c4ccc(-c5ccccc5)cc43)cc2)CC1 [Example 831, 4-{[4-(4-Methyl-piperazin-1-yl)-phenylamino]-methylene}-6-phenyl-4H-isoquinoline-1,3-dione] |  |  |  |  |  |  | IC50 (cyclin D1/cdk 4 enzyme; [7]): 190 nM; IC50 (LoVo; [11]): 2800 nM; IC50 (cyclin B/CDK1 enzyme; [8]): > 50000 nM; IC50 (BT474; [12]): 3200 nM
CN1CCN(c2ccc(N/C=C3\C(=O)NC(=O)c4ccc(-n5cccc5)cc43)cc2)CC1 [compound 60] |  | > 50000 nM |  |  |  |  | IC50 (HCT-116; Homo sapiens, HCT-116, 72 h): 1500 nM; IC50 (MCF-7; Homo sapiens, MCF7, 72 h): 2300 nM; IC50 (LoVo; Homo sapiens, LoVo, 72 h): 2000 nM; IC50 (BT474; Homo sapiens, BT-474, 144 h): 2000 nM
